The values that follow come from patent US8772274B1, “Anti-cancer compositions and methods” (The Penn State Research Foundation, priority 2008, dated 2014).

For one data set, the system named is WM115 melanoma cell line. Kind of data set: MTS cell viability assay, WM115. In general terms: Tetrazolium dyes change colour on reduction, which living cells bring about.
Data set [1] relates to PC-3 prostate adenocarcinoma cells. As to the kind of experiment: MTS cell viability assay, PC-3. In kind it is cell-based, human. The conditions noted are these: PC-3 prostate adenocarcinoma; 24 h; MTS; read-out: Inhibition Cancer Cells IC50, PC-3 (Table III).
Experimental: (§1) Growth inhibitory effects on cultured cells from human vertical growth phase (VGP) melanoma cell line WM115, Lung adenocarcinoma (A549), fibrosarcoma (HT-1080), prostate adenocarcinoma (PC-3), ovarian carcinoma (OVCAR-3), and breast adenocarcinoma (MDA-MB-231) are plated in 96 well plates at a density of 5×10^3 cells/well in 100 μl media. […] Dose response curves for each compound are generated and the IC50 values (μM) determined using GraphPad Prism software. Each experiment is replicated at least 3 times and the average IC50 (μM) values with standard error represented.
In data set [2] the test system is A549 lung adenocarcinoma cells. Kind of data set: MTS cell viability assay, A549. The format is cell-based, human. The conditions noted are these: A549 lung carcinoma; 24 h; MTS; read-out: Inhibition Cancer Cells IC50, A549 (Table III).
Experimental: as §1
Data set [3] concerns PI3 kinase/Akt3 and MAP kinase signaling in UACC 903 cells. As to the kind of experiment: Western blot analysis of melanoma cell lysates. In kind it is cell-based. The conditions noted are these: melanoma cells. On the procedure: Melanoma cell line UACC 903 cells (1×10^6) are treated with increasing concentrations (7-21 μM) of PBIT and PBISe for 24 hours and cell lysates examined by Western blot analysis Cell lysates are harvested by addition of lysis buffer containing 50 mM HEPES (pH 7.5), 150 mM NaCl, 10 mM EDTA, 10% glycerol, 1% Triton X-100, 1 mM sodium orthovanadate, 0.1 mM sodium molybdate, 1 mM phenylmethylsulfonyl fluoride, 20 μg/ml aprotinin, and 5 μg/ml leupeptin. Whole cell lysates are centrifuged (≧10,000×g) for 10 minutes at 4° C. to remove cell debris. Protein concentrations are quantitated using the BCA assay (Pierce, Rockford, Ill.), and 30 μg of lysate loaded per lane onto NuPAGE Gels (Life Technologies, Carlsbad, Calif.). Following electrophoresis, samples are transferred to polyvinylidene difluoride membrane (Pall Corporation, Pensacola, Fla.). Blots are probed with antibodies to PRAS40 and phosphorylated PRAS40 (Thr246) (Invitrogen, Carlsbad, Calif.); antibodies to iNOS, cyclin D1, p27, p21, Erk2, α-enolase and secondary antibodies conjugated with horseradish peroxidase from Santa Cruz Biotechnology (Santa Cruz, Calif.); and antibodies to Akt3, phosphorylated-Akt (Ser473), phosphorylated-Erk 1/2 (Thr202/Tyr204), caspase-3 and cleaved PARP from Cell Signaling Technology (Danvers, Mass.). Immunoblots are developed using ECL (Pierce, Rockford, Ill.).
A general note: In western blotting, separated proteins are transferred to a membrane and probed.

Data set [4] has as its system HCT-116 colorectal adenocarcinoma cells. As to the kind of experiment: MTS cell viability assay, HCT-116. The format is cell-based.
Data set [5] concerns normal human fibroblast cells (FF2441). Kind of data set: MTS cell viability assay, normal fibroblasts. The format is cell-based. The conditions noted are these: FF2441; 24-72 hours; MTS; read-out: Inhibition of growth IC50, Fibroblast cells (FF2441) (Table II).
Experimental: (§2) 5×10^3 cells per well in 100 μl DMEM-10% FBS are grown in a 96-well plate for 36 or 72 hours, respectively for melanoma (UACC 903, 1205 Lu and WM115) and human fibroblast (FF2441) cell lines and treated with either PBS vehicle or increasing concentrations (3.5-21 μM) of PBIT, PBISe, PEIT or PEISe for 24 hours. Cellular viability compared to control treated cells is measured using the MTS assay (Promega, Madison, Wis.). IC50 (μM) values for each compound in respective cell lines is determined from three independent experiments using GraphPad Prism version 4.01 (GraphPad, San Diego, Calif.), bars, SEM.
Viability of colon adenocarcinoma cells (Caco-2, HT 29, HCT 116, SW 480) and normal fibroblast cells (FF2441) treated with PBIT (1), PBISe (2), PEIT (3) or PEISe (4) is compared. The IC50 value is evaluated by treating with increasing concentrations of PBIT, PEIT, PEISe (10-100 μM) or PBISe (1.6-50 μM) for 24-72 hours and the number of viable cell are quantified using MTS (Promega, Wis.).
For data set [6], the system named is Caco-2 colon adenocarcinoma cells. Kind of data set: MTS cell viability assay, Caco-2. As to conditions: MTS.
Experimental: In vitro inhibitory efficacy is measured using 3-(4,5-dimethylthiazol-2-yl)-5-(3-carboxymethoxyphenyl)-2-(4-sulfophenyl)-2H-tetrazolium (MTS) assay (Promega, Madison, Wis.). […] Cells are treated with either vehicle control, PBS, PBIT (40-120 μM) or PBISe (2.4-10 μM) for 72 h. The percentages of viable cells compared to control PBS treated cells are determined using MTS assay and IC50 values calculated using GraphPad Prism version 4.01 (GraphPad software, San Diego, Calif.). An IC50 value for each compound is determined by at least three independent experiments and represented with a standard error.
(§3) The IC50 value is evaluated by treating with increasing concentrations of PBIT, PEIT, PEISe (10-100 μM) or PBISe (1.6-50 μM) for 24-72 hours and the number of viable cell are quantified using MTS (Promega, Wis.).
The subject of data set [7] is A549, Caco-2, HT-1080, PC-3, OVCAR-3, MDA-MB-231, WM115. As to the kind of experiment: MTS viability, all cancer cell lines tested (summary). The format is cell-based, human. As to conditions: Table III; read-out: concentration decreasing cell viability by 50% (IC50), cancer cell lines of Table III.
Experimental: as §1
In data set [8] the test system is 1205Lu melanoma cell line. As to the kind of experiment: MTS cell viability assay, 1205Lu. In kind it is cell-based. As to conditions: read-out: IC50, 1205Lu (Table I).
Experimental: (§4) Cellular viability compared to control treated cells is measured using the MTS assay (Promega, Madison, Wis.).
Data set [9] deals with MDA-MB-231 breast adenocarcinoma cells. Kind of data set: MTS cell viability assay, MDA-MB-231. The format is cell-based, human. The conditions noted are these: MDA-MB-231 breast adenocarcinoma; 24 h; MTS; read-out: Inhibition Cancer Cells IC50, MDA-MB-231 (Table III).
Experimental: as §1
Data set [10] has as its system OVCAR-3 ovarian carcinoma cells. Kind of data set: MTS cell viability assay, OVCAR-3. In kind it is cell-based, human. The conditions noted are these: OVCAR-3 ovarian carcinoma; 24 h; MTS; read-out: Inhibition Cancer Cells IC50, OVCAR-3 (Table III).
Experimental: as §1
In data set [11] the test system is colon adenocarcinoma cells (Caco-2, HT 29, HCT 116, SW 480). As to the kind of experiment: MTS viability, four colon cancer cell lines (summary). In kind it is cell-based. As to conditions: Caco-2, HT 29, HCT 116, SW 480; 24-72 hours; read-out: IC50 range, four colon cancer cell lines.
Experimental: as §3
Data set [12] in a line: Toxicity of topical application in vivo. Here is the method:
Blood collected from the control and experimental animals, at the end of treatment (day 29), are analyzed for SGOT, SGPT (representing liver and cardiac toxicity) and alkaline phosphatase (for kidney and cardiac toxicity). Additionally, concentrations of metabolites (glucose, creatinine, urea nitrogen and total protein) in serum are also determined.

In data set [13] the test system is iNOS (total nitrate+nitrite in Caco-2 cells). As to the kind of experiment: Nitrite estimation (nitrate/nitrite colorimetric assay). In kind it is cell-based. The conditions noted are these: 80 μM, 72 hours. On the procedure: Nitrite content in cell culture media is determined using a nitrate/nitrite colorimetric assay kit (Cayman Chemical Company, Ann Arbor, Mich.) essentially as described in Salvucci, O. et al., Cancer Res 2001; 61:318-26. Caco-2 cells (1×10^6) are plated in 60 mm culture dishes in advanced DMEM containing 10% heat treated FBS for 12 hours, growing cells conditioned with phenol-red free DMEM containing 0.5% FBS for an additional 12 hours. Cells are then treated with increasing concentrations of PBIT (40 and 80 μM) or PBISe (2 and 4 μM) dissolved in phenol-red free DMEM (2 ml) containing 0.5% FBS for 72 hours. Culture supernatants are collected and total nitrite (nitrate+nitrite) measured by incubating 80 μL supernatant with enzyme cofactor mixture (10 μL) and nitrate reductase (10 μL) for 2 hours. Total nitrite is measured by the addition of Griess reagent-I and II (50 μL each). A nitrate standard curve (5-35 μM) is simultaneously prepared. Total nitrite present in media alone is subtracted from all experimental values and represented as micromolar nitrite produced following each treatment.

Data set [14] deals with UACC 903 melanoma cell line. Kind of data set: MTS cell viability assay, UACC 903. The format is cell-based. The conditions noted are these: read-out: IC50, UACC 903 (Table I).
Experimental: as §4
Data set [15] relates to HT-1080 fibrosarcoma cells. As to the kind of experiment: MTS cell viability assay, HT-1080. In kind it is cell-based, human. The conditions noted are these: HT-1080 fibrosarcoma; 24 h; MTS; read-out: Inhibition Cancer Cells IC50, HT-1080 (Table III).
Experimental: as §1
For data set [16], the system named is HT-29 colorectal adenocarcinoma cells. Kind of data set: MTS cell viability assay, HT-29. The format is cell-based.
For data set [17], the system named is SW-480 colorectal adenocarcinoma cells. Kind of data set: MTS cell viability assay, SW-480. In kind it is cell-based. The conditions noted are these: Homo sapiens, SW480, read-out: Inhibition of growth IC50, last Colorectal adenocarcinoma row (Table II).
The mark [18] stands for this setting: read-out: Inhibition of growth IC50, Caco-2 (Table II), Caco-2, 24-72 hours.

Where a name gives a salt, the structure may show the parent alone. Read-outs that look alike come from different tables or passages of the source.

Experimental for WM115 melanoma cell line: as §2
Growth inhibitory effects on cultured cells from human vertical growth phase (VGP) melanoma cell line WM115, Lung adenocarcinoma (A549), fibrosarcoma (HT-1080), prostate adenocarcinoma (PC-3), ovarian carcinoma (OVCAR-3), and breast adenocarcinoma (MDA-MB-231) are plated in 96 well plates at a density of 5×10^3 cells/well in 100 μl media. The cells are treated 36 hours later with PBISe (0.19-100 μM), PBIT (10-100 μM), PEIT 10-100 μM), or PEISe (10-100 μM) for 24 h and cell viability measured using MTS assay. Dose response curves for each compound are generated and the IC50 values (μM) determined using GraphPad Prism software. Each experiment is replicated at least 3 times and the average IC50 (μM) values with standard error represented.

`N=C(N)[Se]CCc1ccccc1` (as salt: hydrobromid) [PEISe, s-2-phenylethylisoselenourea hydrobromide]: the melting point lay within 140 to 142 °C.

Turning to `Br.Br.N=C(N)SCCc1ccc(CCSC(=N)N)cc1` [PBIT, s,s′-1,4-phenylene-bis(1,2-ethanediyl)bis-isothiourea dihydrobromide, reference compound], the IC50 is above 100 µM in the data set on WM115 melanoma cell line (read-out: IC50, WM115 (Table I), WM115 melanoma, 24 hours treatment, MTS); above 100 µM in the data set with WM115 melanoma cell line (read-out: Inhibition Cancer Cells IC50, WM115 (Table III), WM115 melanoma, 24 h, MTS); above 100 µM in data set [1]; above 100 µM in data set [2]; above 100 µM in data set [4] (HCT-116, 24-72 hours, MTS, read-out: Inhibition of growth IC50, HCT-116 (Table II)); above 100 µM in data set [5]. Further, the IC50 in data set [6] (read-out: Inhibition Cancer Cells IC50, Caco-2 (Table III), Caco-2 colorectal adenocarcinoma) is 59.4 ± 3.8 µM; in data set [6] (setting [18]), 59.4 ± 3.83 µM; in data set [7], above 100 µM; in data set [8] (1205Lu melanoma, 24 hours treatment, MTS), above 100 µM; in data set [9], above 100 µM; in data set [10], above 100 µM. The IC50 in data set [11] was 59 to 100 µM; in [14] (UACC 903 melanoma, 24 hours treatment, MTS), above 100 µM; in data set [15], above 100 µM; in data set [16] (HT-29, 24-72 hours, MTS, read-out: Inhibition of growth IC50, HT-29 (Table II)), above 100 µM. Also, the iNOS expression entry in data set [3] (FIG. 4B) is “elevates”. The “cyclin D1 levels” value in data set [3] (FIG. 4C) is “does not alter”. For the same molecule, the “serum enzyme and metabolite levels, topical application” value in data set [12] (day 29, SGOT, SGPT, alkaline phosphatase, glucose, creatinine, urea nitrogen, total protein) is on record as “no significant differences”. In data set [12] (topical every day, 29 days), the “body weight, topical application” value was “no detectable differences”. Further, in data set [13], the “total nitrate+nitrite levels compared to control PBS treated cells” value is “significantly reduces”.

With `N=C(N)[Se]CCc1ccccc1` [PEISe, s-2-phenylethylisoselenourea hydrobromide], the IC50 in the data set with WM115 melanoma cell line (Homo sapiens, WM-115, 24 h, read-out: IC50, WM115 (Table I)) was around 80 µM; in data set [4] (Homo sapiens, HCT-116, read-out: Inhibition of growth IC50, HCT-116 (Table II)), above 100 µM; in data set [6] (setting [18]), 16 ± 2 µM; in data set [8] (Homo sapiens, 1205Lu, 24 h), above 100 µM; in [14] (Homo sapiens, UACC-903, 24 h), above 100 µM; in [17], above 100 µM. Moreover, the IC50 in [16] (Homo sapiens, HT-29, read-out: Inhibition of growth IC50, HT-29 (Table II)) came out at 21.9 ± 2.1 µM.

Broadly, the melting point is the temperature, or range, at which the solid turns liquid.
